The results in this text go back to patent US9346809B2 (LEO PHARMA A/S, priority 2009, dated 2016).

Read-outs that look alike come from different tables or passages of the source.

Common to all, as to type: biochemical
In test [1] the target is T1, JAK1 (aa 850-1154, catalytic domain, GST-tag) (Homo sapiens, UniProt P23458).
T1 construct: JAK1 (aa 850-1154) and TYK2 (aa 871-1187) are expressed with an N-terminally fused GST-tag; GST (N); purchased Carna Biosciences, Inc; host or cells: baculovirus expression system
T1 sequence (P23458 850-1154): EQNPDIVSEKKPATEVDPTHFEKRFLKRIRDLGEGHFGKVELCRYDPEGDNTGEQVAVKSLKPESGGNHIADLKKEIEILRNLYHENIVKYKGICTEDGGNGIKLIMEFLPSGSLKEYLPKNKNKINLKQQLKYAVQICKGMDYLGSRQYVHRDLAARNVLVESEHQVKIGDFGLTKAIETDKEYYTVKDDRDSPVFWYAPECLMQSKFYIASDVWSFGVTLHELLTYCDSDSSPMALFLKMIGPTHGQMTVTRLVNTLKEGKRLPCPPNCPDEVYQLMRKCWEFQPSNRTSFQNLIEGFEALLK
The test can be described thus: JAK kinase assay (HTRF, phosphorylation of TK substrate-biotin), JAK1. The following applies: ATP at Km (7 μM). In outline: (§1)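 EC50 values come from HTRF detection of phospho-biotin-TK peptide (1 μM) after 20-30 min RT reactions in Hepes pH 7.0 buffer with 0.75% DMSO. ATP was at Km for each enzyme: 7 μM JAK1, 4 μM JAK2, 2 μM JAK3, 13 μM TYK2. SEB (50 nM) was added for JAK1 and TYK2 only.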
On the technique in general: Time-resolved FRET reads energy transfer from a long-lived donor to a nearby acceptor.

In test [2] the target is T2, JAK3 (catalytic domain, His-tag) (Homo sapiens, UniProt P52333).
T2 construct: All four purified enzymes contain only the catalytic domain; His (N); purchased Carna Biosciences, Inc; host or cells: baculovirus expression system
T2 sequence (P52333 822-1111 limits assumed): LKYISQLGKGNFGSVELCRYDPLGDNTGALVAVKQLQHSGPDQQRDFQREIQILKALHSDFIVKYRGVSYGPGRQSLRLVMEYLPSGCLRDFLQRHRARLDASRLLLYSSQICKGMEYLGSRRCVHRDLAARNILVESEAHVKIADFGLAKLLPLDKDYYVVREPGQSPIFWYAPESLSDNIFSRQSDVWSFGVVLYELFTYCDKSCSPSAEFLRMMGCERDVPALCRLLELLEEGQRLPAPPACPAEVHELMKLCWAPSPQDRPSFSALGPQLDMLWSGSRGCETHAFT
The test can be described thus: JAK kinase assay (HTRF, phosphorylation of TK substrate-biotin), JAK3. Conditions: ATP at Km (2 μM). A digest of the protocol: as §1

Test [3] concerns the target T3, TYK2 (aa 871-1187, catalytic domain, GST-tag) (Homo sapiens, UniProt P29597).
T3 construct: JAK1 (aa 850-1154) and TYK2 (aa 871-1187) are expressed with an N-terminally fused GST-tag; GST (N); purchased Carna Biosciences, Inc; host or cells: baculovirus expression system
T3 sequence (P29597 871-1187): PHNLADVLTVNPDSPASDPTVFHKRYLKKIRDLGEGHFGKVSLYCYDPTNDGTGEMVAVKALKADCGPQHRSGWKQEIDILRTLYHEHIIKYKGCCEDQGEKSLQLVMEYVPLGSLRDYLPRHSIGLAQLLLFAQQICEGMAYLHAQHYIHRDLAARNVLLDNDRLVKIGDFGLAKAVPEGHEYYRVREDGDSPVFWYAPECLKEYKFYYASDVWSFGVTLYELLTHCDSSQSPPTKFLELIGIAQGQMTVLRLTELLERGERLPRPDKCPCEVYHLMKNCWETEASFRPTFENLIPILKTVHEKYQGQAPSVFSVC
The test can be described thus: JAK kinase assay (HTRF, phosphorylation of TK substrate-biotin), TYK2. Conditions: ATP at Km (13 μM). A digest of the protocol: as §1

Test [4] concerns the target T4, JAK2 (catalytic domain, His-tag) (Homo sapiens, UniProt O60674).
T4 construct: All four purified enzymes contain only the catalytic domain; His (N); purchased Carna Biosciences, Inc; host or cells: baculovirus expression system
The test can be described thus: JAK kinase assay (HTRF, phosphorylation of TK substrate-biotin), JAK2. The following applies: ATP at Km (4 μM). In outline: as §1

Setting [5] is: HTRF assay, read-out: JAK1 kinase inhibitory activity (EC50 indicator).
Where [6] appears, read: HTRF assay, read-out: JAK3 kinase inhibitory activity (EC50 indicator).
The mark [7] stands for this setting: HTRF assay, read-out: TYK2 kinase inhibitory activity (EC50 indicator).
[8] abbreviates: HTRF assay, read-out: JAK2 kinase inhibitory activity (EC50 indicator).
[9] abbreviates: read-out: JAK1 kinase inhibitory activity (EC50 indicator).
Where [10] appears, read: read-out: JAK3 kinase inhibitory activity (EC50 indicator).
Setting [11] is: read-out: TYK2 kinase inhibitory activity (EC50 indicator).
[12] abbreviates: read-out: JAK2 kinase inhibitory activity (EC50 indicator).
Setting [13] is: HTRF assay, read-out: JAK1 kinase inhibitory activity (EC50).
Where [14] appears, read: HTRF assay, read-out: JAK3 kinase inhibitory activity (EC50).
Setting [15] is: HTRF assay, read-out: TYK2 kinase inhibitory activity (EC50).
Where [16] appears, read: HTRF assay, read-out: JAK2 kinase inhibitory activity (EC50).

T4 sequence (O60674 849-1124 limits assumed): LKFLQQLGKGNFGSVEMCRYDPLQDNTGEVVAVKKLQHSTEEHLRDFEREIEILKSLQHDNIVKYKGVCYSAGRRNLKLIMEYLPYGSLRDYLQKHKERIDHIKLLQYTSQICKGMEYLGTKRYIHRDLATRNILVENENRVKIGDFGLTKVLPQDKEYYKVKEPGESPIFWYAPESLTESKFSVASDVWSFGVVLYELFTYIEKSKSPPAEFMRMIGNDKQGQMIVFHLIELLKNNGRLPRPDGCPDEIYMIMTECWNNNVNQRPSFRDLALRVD

For the molecule `N#CCc1cccc(CC(=O)N2CCN(c3nc(N)nc4[nH]ccc34)CC23CC3)c1` [Example 306, (3-{2-[7-(2-Amino-7H-pyrrolo[2,3-d]pyrimidin-4-yl)-4,7-diaza-spiro[2.5]oct-4-yl]-2-oxo-ethyl}-phenyl)-acetonitrile], the EC50 in test [1] (setting [5]) was 100 to 500 nM; in test [2] (setting [6]), 100 to 500 nM; in test [3] (setting [7]), more than 500 nM; in test [4] (setting [8]) it was 100 to 500 nM.

As to `COc1cc(C(=O)N2[C@@H]3CC[C@H]2CN(c2ncnc4[nH]ccc24)C3)ccc1S(N)(=O)=O` [Example 390, 2-Methoxy-4-[3-(7H-pyrrolo[2,3-d]pyrimidin-4-yl)-3,8-diaza-bicyclo[3.2.1]octane-8-carbonyl]-benzenesulfonamide], the concentration giving a half-maximal response (EC50) in test [1] (setting [5]), in test [2] (setting [6]), in test [3] (setting [7]) and in test [4] (setting [8]) was less than 100 nM each time.

In the case of `N#CCC(=O)N1CCN(c2ncnc3[nH]ccc23)CC12CC2` [Example 54, 3-Oxo-3-[7-(7H-pyrrolo[2,3-d]pyrimidin-4-yl)-4,7-diazaspiro[2.5]oct-4-yl]propionitrile], the EC50 is less than 100 nM in test [1] (setting [9]), less than 100 nM in test [2] (setting [10]), more than 500 nM in test [3] (setting [11]) and less than 100 nM in test [4] (setting [12]).

Turning to `CS(=O)(=O)c1cccc(C(=O)N2C3CCC2CN(c2ncnc4[nH]ccc24)C3)c1` [Example 135, (3-Methanesulfonyl-phenyl)-[3-(7H-pyrrolo[2,3-d]pyrimidin-4-yl)-3,8-diaza-bicyclo[3.2.1]oct-8-yl]-methanone], the EC50 was less than 100 nM in test [1] (setting [9]), 100 to 500 nM in test [2] (setting [10]), more than 500 nM in test [3] (setting [11]) and less than 100 nM in test [4] (setting [12]).

Regarding `S=C(NCc1ccccc1)N1CCN(c2ncnc3[nH]ccc23)CC12CC2` [Example 438, 7-(7H-Pyrrolo[2,3-d]pyrimidin-4-yl)-4,7-diaza-spiro[2.5]octane-4-carbothioic acid benzylamide], the EC50 in test [1] (setting [13]) was less than 100 nM; in test [2] (setting [14]) it was 100 to 500 nM; in test [3] (setting [15]) it was 100 to 500 nM; in test [4] (setting [16]) it was less than 100 nM.

On to `Cc1c(C(=O)N2[C@H]3CC[C@H]2CN(c2ncnc4[nH]ccc24)C3)sc2ccccc12` [Example 245, (3-Methyl-benzo[b]thiophen-2-yl)-[3-(7H-pyrrolo[2,3-d]pyrimidin-4-yl)-3,8-diaza-bicyclo[3.2.1]oct-8-yl]-methanone], for which the EC50 in test [1] (setting [5]) is less than 100 nM; in test [2] (setting [6]), less than 100 nM; in test [3] (setting [7]) it was more than 500 nM; in test [4] (setting [8]), less than 100 nM.

Take `Cc1c(C(=O)N2CCN(c3ncnc4[nH]ccc34)CC23CC3)sc2ccccc12` [Example 296, (3-Methyl-benzo[b]thiophen-2-yl)-[7-(7H-pyrrolo[2,3-d]pyrimidin-4-yl)-4,7-diaza-spiro[2.5]oct-4-yl]-methanone]: the EC50 is less than 100 nM in test [1] (setting [5]), 100 to 500 nM in test [2] (setting [6]), less than 100 nM in test [3] (setting [7]) and less than 100 nM in test [4] (setting [8]).

For the molecule `N#Cc1ccc(C(=O)N2[C@@H]3CC[C@H]2CN(c2ncnc4[nH]ccc24)C3)cc1` [Example 31, 4-[3-(7H-Pyrrolo[2,3-d]pyrimidin-4-yl)-3,8-diazabicyclo[3.2.1]octane-8-carbonyl]benzonitrile], the EC50 in test [1] (setting [9]) was less than 100 nM; in test [2] (setting [10]), 100 to 500 nM; in test [3] (setting [11]), more than 500 nM; in test [4] (setting [12]), less than 100 nM.

`CC(C)S(=O)(=O)c1ccc(C(=O)N2CCN(c3ncnc4[nH]ccc34)CC23CC3)cc1` [Example 196, [4-(Propane-2-sulfonyl)-phenyl]-[7-(7H-pyrrolo[2,3-d]pyrimidin-4-yl)-4,7-diaza-spiro[2.5]oct-4-yl]-methanone]: the EC50 in test [1] (setting [9]) was less than 100 nM; in test [2] (setting [10]) it was 100 to 500 nM; in test [3] (setting [11]), more than 500 nM; in test [4] (setting [12]), less than 100 nM.

For the molecule `CS(=O)(=O)c1ccc(CC(=O)N2CCN(c3ncnc4[nH]ccc34)CC23CC3)cc1` [Example 420, 2-(4-Methanesulfonyl-phenyl)-1-[7-(7H-pyrrolo[2,3-d]pyrimidin-4-yl)-4,7-diaza-spiro[2.5]oct-4-yl]-ethanone], the 50% effective concentration (EC50) in test [1] (setting [5]) was less than 100 nM; in test [2] (setting [6]), less than 100 nM; in test [3] (setting [7]), more than 500 nM; in test [4] (setting [8]), less than 100 nM.

On to `COCC(=O)N1CCN(c2ncnc3[nH]ccc23)CC12CC2` [Example 443, 2-Methoxy-1-[7-(7H-pyrrolo[2,3-d]pyrimidin-4-yl)-4,7-diaza-spiro[2.5]oct-4-yl]-ethanone], for which the EC50 was less than 100 nM in test [1] (setting [13]), more than 500 nM in test [2] (setting [14]), more than 500 nM in test [3] (setting [15]) and less than 100 nM in test [4] (setting [16]).

As for `Cn1cc(S(N)(=O)=O)cc1C(=O)N1C2CCC1CN(c1ncnc3[nH]ccc13)C2` [Example 142, 1-Methyl-5-[3-(7H-pyrrolo[2,3-d]pyrimidin-4-yl)-3,8-diaza-bicyclo[3.2.1]octane-8-carbonyl]-1H-pyrrole-3-sulfonic acid amide], the EC50 was less than 100 nM in test [1] (setting [9]), less than 100 nM in test [2] (setting [10]), 100 to 500 nM in test [3] (setting [11]) and less than 100 nM in test [4] (setting [12]).

On to `Cc1ccc2[nH]c(C(=O)N3C4CCC3CN(c3ncnc5[nH]ccc35)C4)cc2c1` [Example 200, (5-Methyl-1H-indol-2-yl)-[3-(7H-pyrrolo[2,3-d]pyrimidin-4-yl)-3,8-diaza-bicyclo[3.2.1]oct-8-yl]-methanone], for which the EC50 in test [1] (setting [9]) is less than 100 nM; in test [2] (setting [10]), 100 to 500 nM; in test [3] (setting [11]), more than 500 nM; in test [4] (setting [12]), less than 100 nM.

As for `N#Cc1ccc(C(=O)N2CCN(c3ncnc4[nH]ccc34)CC23CC3)c(F)c1` [Example 92, 3-Fluoro-4-[7-(7H-pyrrolo[2,3-d]pyrimidin-4-yl)-4,7-diaza-spiro[2.5]octane-4-carbonyl]-benzonitrile], the EC50 in test [1] (setting [9]) was less than 100 nM; in test [2] (setting [10]), 100 to 500 nM; in test [3] (setting [11]), 100 to 500 nM; in test [4] (setting [12]), less than 100 nM.

For the molecule `N#CCc1ccc(CC(=O)N2[C@@H]3CC[C@@H]2CN(c2ncnc4[nH]ccc24)C3)cc1` [Example 347, (4-{2-Oxo-2-[3-(7H-pyrrolo[2,3-d]pyrimidin-4-yl)-3,8-diaza-bicyclo[3.2.1]oct-8-yl]-ethyl}-phenyl)-acetonitrile], the EC50 is 100 to 500 nM in test [1] (setting [5]), more than 500 nM in test [2] (setting [6]), more than 500 nM in test [3] (setting [7]) and 100 to 500 nM in test [4] (setting [8]).

Turning to `CC(=O)Nc1ccc(C(=O)N2[C@@H]3CC[C@@H]2CN(c2ncnc4[nH]ccc24)C3)cc1` [Example 354, N-{4-[3-(7H-Pyrrolo[2,3-d]pyrimidin-4-yl)-3,8-diaza-bicyclo[3.2.1]octane-8-carbonyl]-phenyl}-acetamide], the EC50 in test [1] (setting [5]) was less than 100 nM; in test [2] (setting [6]), 100 to 500 nM; in test [3] (setting [7]) it was more than 500 nM; in test [4] (setting [8]), less than 100 nM.

With `COC(=O)c1cc2c(N3CCN(C(=O)Cc4ccc(C(F)(F)F)cc4)C4(CC4)C3)ncnc2[nH]1` [Example 338, 4-{4-[2-(4-Trifluoromethyl-phenyl)-acetyl]-4,7-diaza-spiro[2.5]oct-7-yl}-7H-pyrrolo[2,3-d]pyrimidine-6-carboxylic acid methyl ester], the EC50 in test [1] (setting [5]), in test [2] (setting [6]), in test [3] (setting [7]) and in test [4] (setting [8]) was more than 500 nM in each case.

On to `N#CCc1cccc(CC(=O)N2[C@@H]3CC[C@@H]2CN(c2ncnc4[nH]ccc24)C3)c1` [Example 346, (3-{2-Oxo-2-[3-(7H-pyrrolo[2,3-d]pyrimidin-4-yl)-3,8-diaza-bicyclo[3.2.1]oct-8-yl]-ethyl}-phenyl)-acetonitrile], for which the EC50 is 100 to 500 nM in test [1] (setting [5]), more than 500 nM in test [2] (setting [6]), more than 500 nM in test [3] (setting [7]) and 100 to 500 nM in test [4] (setting [8]).

Take `Cc1ccc(C(=O)N2C[C@@H]3C[C@H]2CN3c2ncnc3[nH]ccc23)s1` [Example 265, (5-Methyl-thiophen-2-yl)-[5-(7H-pyrrolo[2,3-d]pyrimidin-4-yl)-2,5-diaza-bicyclo[2.2.1]hept-2-yl]-methanone]: the EC50 in test [1] (setting [5]), in test [2] (setting [6]), in test [3] (setting [7]) and in test [4] (setting [8]) was more than 500 nM throughout.

Broadly, the EC50 is the midpoint of the concentration-response curve.
